Test results: patent US11059828B2, “Disubstituted octahydropyrrolo[3,4-C]pyrroles as orexin receptor modulators” (Janssen Pharmaceutica NV, priority 2009, dated 2021)

Biological target: human orexin-2 receptor (Homo sapiens (Human), UniProt O43614)
Test: Human Orexin 2 Receptor Radioligand Binding Studies ([3H]-EMPA competition)
Conditions: HEK293 cells stably expressing human orexin-2 receptor; [3H]-EMPA 5 nM; apparent Ki; read-out: OR 2 Ki

human orexin-2 receptor, sequence (O43614 whole entry): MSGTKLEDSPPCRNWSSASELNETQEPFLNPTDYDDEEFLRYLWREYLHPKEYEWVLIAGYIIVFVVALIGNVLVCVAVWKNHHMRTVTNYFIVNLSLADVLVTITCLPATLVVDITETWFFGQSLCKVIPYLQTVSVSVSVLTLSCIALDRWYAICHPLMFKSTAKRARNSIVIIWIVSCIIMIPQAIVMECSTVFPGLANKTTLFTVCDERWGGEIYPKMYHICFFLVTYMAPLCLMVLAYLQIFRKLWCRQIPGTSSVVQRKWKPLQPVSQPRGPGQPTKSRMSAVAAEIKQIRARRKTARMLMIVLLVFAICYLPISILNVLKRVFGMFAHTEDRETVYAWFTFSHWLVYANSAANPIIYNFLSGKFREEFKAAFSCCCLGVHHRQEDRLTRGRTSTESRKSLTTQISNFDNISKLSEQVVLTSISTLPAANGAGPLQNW

Structure (SMILES): O=C(c1cccc(F)c1-n1nccn1)N1CC2CN(c3cnc4cc(F)c(F)cc4n3)CC2C1 (stereo not shown) [Example 244, (5-(6,7-Difluoroquinoxalin-2-yl)hexahydropyrrolo[3,4-c]pyrrol-2(1H)-yl)(3-fluoro-2-(2H-1,2,3-triazol-2-yl)phenyl)methanone]
- Ki: 18 nM
